This assay concerns MEF A1-2A-BIM cells, caspase 3/7 luminescence, 3 h. Kind of assay: caspase activation in A1-2A-BIM MEF cells, dose response, A1 inhibitor project, cell-based, luminescence, retest (AID 2765).

Calls of active or inactive are those of the source.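 Rule for the calls: active = half-maximal concentration for the rise in caspase light signal at or below ten times the top tested dose; inconclusive = flat fit between 30% and 70% activity, or unreliable curve fit; inactive = the rest.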 Some results are limits rather than exact numbers.

As for `CC1CCCCC12NC(=O)N(CC(=O)c1ccc(Cl)s1)C2=O` (stereo not drawn), the EC50 was > 35 µM (inactive). The result for `NC(N)=N/N=C/c1cccc([N+](=O)[O-])c1O` reads > 35 µM (inactive); that for `CCCCNC(=O)c1ccc(Cn2c(=S)[nH]c3c([nH]c4ccc(OC)cc43)c2=O)cc1`, 5.24 µM; that for `CN(CCc1ccccc1)C(=O)c1cccc(NC(=O)Cc2cccc([N+](=O)[O-])c2)c1`, > 35 µM (inactive).

Take `Cc1cc(C)n(CCC(=O)N/N=C/c2ccc(Cl)c([N+](=O)[O-])c2)n1`: the EC50 was > 35 µM (inactive). The result for `CCOC(=O)c1c(C)[nH]c(C)c1C(=O)CSc1nc2ccccc2n1CCOC` reads > 35 µM (inactive); that for `COc1ccc(S(=O)(=O)Nc2c(NC3CCCCC3)c3ccccc3oc2=O)cc1OC`, > 35 µM (inactive); that for `O=C(Nc1ccc(N2CCN(C(=O)c3ccco3)CC2)cc1)c1cccs1`, > 35 µM (inactive). `CN(C)C=NC(=O)c1cc(C(=O)c2ccc(Cl)cc2Cl)c[nH]1`: the EC50 is > 35 µM (inactive). The result for `O=C(CN1C(=O)c2ccccc2S1(=O)=O)N1CCN(Cc2ccc3c(c2)OCO3)CC1` reads > 35 µM (inactive).

With `CCCn1cc(S(=O)(=O)c2ccc(C)cc2)c(=O)c2cc(OC)c(OC)cc21`, the EC50 is > 35 µM (inactive).

Regarding `Cc1ccc(S(=O)(=O)n2cc(-c3ccccc3)c3ccccc32)cc1`, the EC50 was > 35 µM (inactive). The result for `COc1cccc(CNC(=O)CN2C(=O)COc3ccc(S(=O)(=O)N4CCCCCC4)cc32)c1` reads > 35 µM (inactive); that for `c1ccc(-c2sc3ccccc3c2-c2ccc(OCCN3CCOCC3)cc2)cc1`, > 35 µM (inactive). The result for `Cc1cc(NC(=O)COC(=O)C2=NN(c3ccccc3)C(=O)CC2)c([N+](=O)[O-])cc1C` reads > 35 µM (inactive). Next, `CCOc1ccc(NC(=S)NC(=O)/C=C/c2ccc(C)cc2)c([N+](=O)[O-])c1`: 31.5 µM. Turning to `Nc1nc(Cl)nc2c1ncn2[C@H]1C[C@H](O)[C@@H](CO)O1`, the EC50 is > 35 µM (inactive). Take `O=C(Nc1ccc(Cl)cc1Cl)c1cccc(N2C(=O)C=CC2=O)c1`: the EC50 was > 35 µM (inactive). Turning to `CCCCCCCC/C=C\CCCCCCCC(=O)O`, the EC50 was > 35 µM (inactive).

On to `Cc1ccccc1OCCOC(=O)c1c(-c2ccccc2)noc1C`, for which the EC50 is > 35 µM (inactive). Next, `COc1ccc(C2Nc3ccc4ccccc4c3-c3c2c(=O)oc2ccccc32)cc1` (stereo not drawn): 11 µM; `COC(=O)CCC(=O)c1ccc(OC)c(Cl)c1`: > 35 µM (inactive). With `O=C(Nc1nnc(C2CCCCC2)s1)C1CC(=O)N(c2ccc(F)cc2)C1` (stereo not drawn), the EC50 is > 35 µM (inactive). For `CC(=O)N1CCN(C2c3cccc4cccc(c34)C2NS(=O)(=O)c2ccccc2)CC1` (stereo not drawn), the EC50 was > 35 µM (inactive).

On to `CC(C)(C)C(=O)CNS(=O)(=O)c1ccc(S(=O)(=O)NC2CC2)cc1`, for which the EC50 is > 35 µM (inactive). Take `O=C(N/N=C/c1ccco1)c1cc(-c2cccc(Br)c2)nc2ccccc12`: the EC50 was > 35 µM (inactive). Next, `COc1ccc(NC(=O)/C=C/C(=O)O)c([N+](=O)[O-])c1`: > 35 µM (inactive). Next, `CCCCNC(=S)N/N=C/c1ccc(OCC(=O)Nc2c(C)cc(C)cc2C)c(OC)c1`: > 35 µM (inactive).

Regarding `CC1Cc2ccccc2N1C(=O)C1CCN(S(=O)(=O)Cc2ccccc2)CC1` (stereo not drawn), the EC50 is > 35 µM (inactive). The result for `Cc1cc(-c2onc(C)c2C(=O)Nc2ccc(C(F)(F)F)cc2)no1` reads > 35 µM (inactive); that for `COc1ccc(C(=O)Sc2ccc(Cl)cc2)cc1OC`, > 35 µM (inactive); that for `CCC(Sc1ncccc1Nc1ccccn1)C(=O)O` (stereo not drawn), > 35 µM (inactive). The result for `COc1cc(C(=O)Nc2cc(-c3ccccc3)[nH]n2)cc(OC)c1OC` reads > 35 µM (inactive); that for `Cc1[nH]n(-c2cccc(Cl)c2)c(=O)c1C=NC12CN3CN(CN(C3)C1)C2`, > 35 µM (inactive). As for `CCN(CC(=O)NCc1ccc(Cl)cc1)S(=O)(=O)c1ccc(F)cc1`, the EC50 was > 35 µM (inactive).

Take `O=[N+]([O-])c1ccccc1S(=O)(=O)N1CCN(S(=O)(=O)c2ccc3c(c2)OCCO3)CC1`: the EC50 was > 35 µM (inactive).

Regarding `O=C1Nc2ncccc2OC1CCO` (stereo not drawn), the EC50 was > 35 µM (inactive). The result for `COCCNC(=S)N(CCc1c(C)[nH]c2ccccc12)Cc1cccnc1` reads > 35 µM (inactive). As for `OC(CNCC1COc2ccccc2O1)COc1ccc(Cl)cc1` (stereo not drawn), the EC50 is > 35 µM (inactive). Next, `COCc1cccc(NC(=O)CCc2ccccc2)c1`: > 35 µM (inactive). With `O=C1C(=O)c2ccc(-c3ccccc3)cc2-c2ccccc21`, the EC50 was > 35 µM (inactive). On to `CCS(=O)(=O)c1ncc(Cl)c(C(=O)Nc2ccc(S(=O)(=O)N3CCCC(C)C3)cc2)n1` (stereo not drawn), for which the EC50 is > 35 µM (inactive). The result for `Cc1cccc(NC(=S)NCCc2ccc(F)cc2)c1C` reads > 35 µM (inactive); that for `COc1cc2sc3ccc(C#Cc4ccc(N)cc4)cc3c(=O)c2cc1OC`, > 35 µM (inactive).

For the compound `CCOC(=O)c1ccc(-c2ccc(/C=N/NC(=O)CN(c3cccc(C)c3)S(C)(=O)=O)o2)cc1`, the EC50 is 24 µM.

For the compound `COC(=O)C1=C(C(=O)OC)[C@@H]2N(C)c3ccc(OC)cc3[C@@]23C[C@@H](C(=O)OC)N(C(=O)c2ccco2)C3=N1`, the EC50 is > 35 µM (inactive). The result for `Cc1cc(S(=O)(=O)N2CCCOC2CNC(=O)C(=O)NCc2ccco2)ccc1F` (stereo not drawn) reads > 35 µM (inactive); that for `COc1ccc(N/C(=N/c2nc(C)cc(C)n2)NC(=O)Nc2ccc(Cl)c(Cl)c2)c(OC)c1`, > 35 µM (inactive); that for `CN(c1ccccc1C(=O)Nc1cccc(C(F)(F)F)c1)S(C)(=O)=O`, > 35 µM (inactive). Next, `CSc1ccccc1NC(=O)c1ccc(N2CC3CC(C2)c2cccc(=O)n2C3)c(NC(=O)c2cccnc2)c1` (stereo not drawn): > 35 µM (inactive). The result for `CN(C)S(=O)(=O)c1cccc(C(=O)Nc2n[nH]c(C(F)(F)F)n2)c1` reads > 35 µM (inactive); that for `CCN(C(=O)c1ccc2c(=O)n3c(nc2c1)CCCCC3)c1ccccc1C`, > 35 µM (inactive). With `Nc1nonc1-n1nnc(C(=O)N/N=C/c2ccc(Br)cc2)c1CN1CCOCC1`, the EC50 is > 35 µM (inactive).

As for `COc1ccc(/C=C/C(=O)NC(=S)NCCc2ccc(OC)c(OC)c2)cc1`, the EC50 was > 35 µM (inactive). Regarding `CCOC(=O)[C@H]1[C@H]2COc3ccc(OC)cc3[C@@H]2N2C(=O)CN(CC3CCCO3)C(=O)[C@@]12C` (stereo partly drawn), the EC50 was > 35 µM (inactive). Next, `CN1C(=O)[C@H]2[C@@H](C3CC3)N3C(=O)CN(Cc4ccc(-c5ccccc5)cc4)C(=O)[C@@]3(C)[C@H]2C1=O`: > 35 µM (inactive); `CCn1c(Cl)c(C=O)s/c1=N\S(=O)(=O)c1ccccc1`: > 35 µM (inactive). Next, `CCS(=O)(=O)c1ncc(Cl)c(C(=O)Nc2ccccc2OC)n1`: > 35 µM (inactive). The result for `O=[N+]([O-])/C=C/c1ccc2c(ccn2Cc2ccccc2)c1` reads 12.3 µM; that for `CN(C(=O)CSc1ccncc1)C1CCCN(Cc2ccccc2F)C1` (stereo not drawn), > 35 µM (inactive). On to `Cc1ccc(CNC(=O)CCS(=O)(=O)c2ccc3c(c2)CC(C)N3C(=O)C2CC2)o1` (stereo not drawn), for which the EC50 was > 35 µM (inactive).

Turning to `NS(=O)(=O)c1ccc(NC(=O)CN2CCc3ccccc32)cc1`, the EC50 is > 35 µM (inactive). As for `O=C(N/C=N/OCc1ccc(Cl)cc1Cl)NOCc1ncc(C(F)(F)F)cc1Cl`, the EC50 is > 35 µM (inactive). The result for `COc1ccc(CC(=O)NCCN2CCOCC2)cc1` reads > 35 µM (inactive); that for `CCOC(=O)Nc1nc(-c2ccccc2)c(C(=O)c2ccccc2)s1`, > 35 µM (inactive); that for `CN1CCN(c2nccc3c2ncn3C)CC1`, > 35 µM (inactive). For the compound `CS(=O)(=O)c1ncc(Cl)c(C(=O)Nc2ccc(N3CCOCC3)cc2)n1`, the EC50 was > 35 µM (inactive). The result for `CC(C)(C)c1ccc2c(c1)OC(C(=O)N/N=C\c1ccc[nH]1)CO2` (stereo not drawn) reads > 35 µM (inactive); that for `O=C(Nc1ccc2oc(-c3ccccc3)nc2c1)c1ccccc1F`, > 35 µM (inactive); that for `O=C(CN1C(=O)c2ccccc2S1(=O)=O)NCCc1ccccc1`, > 35 µM (inactive).

Take `Cc1cccc(/C=C/C(=O)c2ccc([N+](=O)[O-])o2)c1`: the EC50 was > 35 µM (inactive). The result for `COc1ccc2c(c1)c(=O)c(C(=O)c1ccc(F)cc1)cn2CC(=O)Nc1ccc(F)cc1` reads > 35 µM (inactive).

As to `CC(C)(C)OC(=O)NCCc1nnc(S(=O)(=O)Cc2ccc(Cl)cc2Cl)o1`, the EC50 was > 35 µM (inactive). The result for `O=C1CC(C(=O)Nc2ccccc2)C2(CCCCC2)O1` (stereo not drawn) reads > 35 µM (inactive); that for `CCCCn1c(=O)[nH]c(=O)c2c1nc(Cn1ncc(Cl)c(Cl)c1=O)n2CCC`, > 35 µM (inactive); that for `Cc1cc(C)n2nc(SCC(=O)NC(=O)c3ccccc3)nc2n1`, > 35 µM (inactive).

`CN(C)C(=O)c1ccc(OCC(F)(F)F)nc1`: the EC50 is > 35 µM (inactive).

`Cc1ccc(C(C(=O)NCc2ccco2)N(C(=O)Cc2cccs2)c2cccnc2)cc1` (stereo not drawn): the EC50 was > 35 µM (inactive). Next, `CCCCc1ccc(NC(=O)CN(C)CC(=O)Nc2ccccc2Cl)cc1`: > 35 µM (inactive); `Cc1ccc(CCNC(=O)c2cc(-c3ccncc3)nc3ccc(S(=O)(=O)N4CCOCC4)cc23)cc1`: > 35 µM (inactive). Next, `N#C/C(=C/c1ccc(N2CCOCC2)o1)c1ccc(Br)cc1`: > 35 µM (inactive); `COc1cccc(CN(CC(=O)NC2CCCC2)C(=O)c2csnn2)c1`: > 35 µM (inactive); `O=C(O)/C(=C\c1c(C(=O)O)[nH]c2cc(Cl)cc(Cl)c12)c1ccccc1`: > 35 µM (inactive).

Usually EC50 stands for the midpoint of the concentration-response curve.

The values are drawn from PubChem BioAssay AID2765 (Broad Institute, 2010).
